Assay results from article PMC6370745, “Positive Regulation of Spoilage Potential and Biofilm Formation in Shewanella baltica OS155 via Quorum Sensing System Composed of DKP and Orphan LuxRs” (Frontiers in Microbiology, 2019).

Biological target: T1, LuxR01 (Shewanella baltica, UniProt A3CYS4)
T1 construct: gene Sbal_0102
T1 sequence (A3CYS4 1-175): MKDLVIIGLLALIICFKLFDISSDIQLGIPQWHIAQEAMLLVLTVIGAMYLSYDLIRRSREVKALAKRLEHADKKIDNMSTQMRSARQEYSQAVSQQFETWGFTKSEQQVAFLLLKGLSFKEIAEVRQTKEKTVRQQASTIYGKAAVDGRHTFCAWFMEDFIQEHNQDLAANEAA
Assay: FLAG bead pull-down from ligand mixture, UHPLC-MS/MS
Assay type: binding
Conditions: mixture of C4-HSL, C6-HSL, PL, LL and PP, 1 uM, PBS, 4 °C, 1 h; empty-vector control

`O=C1N[C@@H](Cc2ccccc2)C(=O)N2CCC[C@@H]12` [PP, cyclo-(L-Pro-L-Phe)] was tested, and the “FLAG bead pull-down from ligand mixture, UHPLC-MS/MS” value was “PP was detected in LuxR01 and LuxR02 protein binding system”.
